Reference: ChEMBL document CHEMBL1201862, “PubChem BioAssay data set” (2004)
Calls of active or inactive are those of the source.

Experiments:
[1] = molecular target: T1, NADPH oxidase 1 (Homo sapiens, UniProt Q9Y5S8); assay: Late-stage luminescence-based cell-based dose response assay to identify inhibitors of NADPH oxidase 1 (NOX1): Synthesized analogs 2.; assay type: functional
[2] = molecular target: T2, Luciferin 4-monooxygenase (Photuris pensylvanica, UniProt Q27757); assay: inhibition of Cell Titer Glo luciferase signal – biochemical, luminescence, cherry-picks, counter-screen for HSF-1 reporter inhibitor project, dose response (AID 588847)
T2 sequence (Q27757 whole entry): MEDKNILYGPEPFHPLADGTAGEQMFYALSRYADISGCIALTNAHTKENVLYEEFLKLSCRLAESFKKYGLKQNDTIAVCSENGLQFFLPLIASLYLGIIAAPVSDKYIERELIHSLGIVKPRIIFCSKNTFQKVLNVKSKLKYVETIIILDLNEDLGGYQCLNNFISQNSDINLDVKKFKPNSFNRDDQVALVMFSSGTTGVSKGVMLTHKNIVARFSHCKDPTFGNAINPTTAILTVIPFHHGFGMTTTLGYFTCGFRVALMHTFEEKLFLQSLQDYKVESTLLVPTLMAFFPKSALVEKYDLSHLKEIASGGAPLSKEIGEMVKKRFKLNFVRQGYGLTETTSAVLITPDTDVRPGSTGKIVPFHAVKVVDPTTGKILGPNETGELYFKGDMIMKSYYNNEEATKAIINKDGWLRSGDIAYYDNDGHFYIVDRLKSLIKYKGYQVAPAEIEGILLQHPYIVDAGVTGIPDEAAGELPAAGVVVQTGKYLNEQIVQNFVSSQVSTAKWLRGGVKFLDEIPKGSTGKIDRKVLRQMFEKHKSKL

[3] = molecular target: Heat shock protein HSP 90-alpha (Homo sapiens, UniProt P07900); assay: Luminescence-based dose response biochemical high throughput screening assay for inhibitors of the Heat Shock Protein 90 (HSP90). [Related pubchem assays: 1831 (Summary AID.), 1846 (Confirmation screen.), 1789 (Primary screen.)]
[4] = molecular target: Bcl-2-like protein 1 (Homo sapiens, UniProt Q07817); assay: blockers of BCLXL peptide binding – biochemical, fluorescence polarization, 1536-well, selectivity assay for MCL1 inhibitor project, dose response (AID 2218)
[5] = molecular target: T3, Induced myeloid leukemia cell differentiation protein Mcl-1 (Homo sapiens, UniProt Q07820); assay: blockers of MCL1 binding to BIM peptide – biochemical, fluorescence polarization, BIM-BH3 peptide, 1536-well, dose response (AID 2217)
[6] = molecular target: T3, Induced myeloid leukemia cell differentiation protein Mcl-1; assay type: functional
[7] = system: HEK293; assay: cells; conditions: Homo sapiens
[8] = viability loss in THP-1 monocytes – THP-1 cells, cytotoxicity control for Vif-APOBEC3G degradation inhibitor project, dose response (AID 1117359); assay type: functional; conditions: THP-1
[9] = system: HEK293; assay: cells; conditions: Homo sapiens; remark: listed apart in the source
[10] = molecular target: Mitogen-activated protein kinase 10 (Homo sapiens, UniProt P53779); assay: Dose response biochemical screening assay for inhibitors of c-Jun N-Terminal Kinase 3 (JNK3). [Related pubchem assays: 746 ]
[11] = IC50 of Artemis nuclease activity blockers – biochemical, fluorescence intensity, dose response (AID 720701); assay type: functional;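 also: Artemis endonuclease enzyme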
[12] = molecular target: Neuropeptides B/W receptor type 1 (Homo sapiens, UniProt P48145); assay: Fluorescence-based dose response cell-based high throughput screening assay to identify antagonists of the G-protein coupled receptor 7 (GPR7). [Related pubchem assays: 1952 (Screening assay (GPR7 antagonists).), 1880 (Summary AID.)]; assay type: functional
[13] = molecular target: Melanin-concentrating hormone receptor 1 (Homo sapiens, UniProt Q99705); assay: Fluorescence-based counterscreen for antagonists of the G-protein coupled receptor 7 (GPR7): cell-based high throughput dose response assay to identify antagonists of the melanin-concentrating hormone receptor 1 (MCHR1).; assay type: functional
[14] = molecular target: Aryl hydrocarbon receptor (Homo sapiens, UniProt P35869); assay: Luminescence-based cell-based high throughput dose response assay for activators of the Aryl Hydrocarbon Receptor (AHR). [Related pubchem assays: 2796 (Primary screen (AHR activators in singlicate)), 2845 (Confirmation screen (AHR activators in triplicate)), 434939 (Counterscreen (PXR activators in triplicate)), 2804 (Summary (AHR activators))]; assay type: ADME
[15] = cells; assay type: functional, cell-based
[16] = system: Vero; assay: cells; assay type: functional, cell-based; conditions: Chlorocebus sabaeus
[17] = alpha-synuclein stem-loop luciferase translation blockers – H4 neuroglioma cells, luminescence, confirmation (AID 1988); assay type: functional, cell-based
[18] = Luminescence Cell-Based Dose Response HTS to Identify Inhibitors of 5'UTR Stem-Loop Driven Prion Protein mRNA Translation in H4 Neuroglioblastoma Cells. [Related pubchem assays: 1827 (Project Summary), 1813 (Primary HTS)]; assay type: functional
[19] = alpha-synuclein stem-loop translation blockers – luminescence, H4 neuroglioblastoma cells, dose confirmation, confirmation (AID 2454); assay type: functional, cell-based;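 also: H4 neuroglioblastoma cells carrying an alpha-synuclein 5'UTR luciferase reporter; potency for inhibition of the luciferase signal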
[20] = Luminescence-based dose response cell-based high throughput screening assay for cytotoxic compounds using the IEC-6 intestinal epithelial cell line. [Related pubchem assays: 1858 (Summary AID.), 1825 (Counterscreen.), 1907 (Confirmation screen.)]; assay type: functional
[21] = luciferase reporter signal reduction – luminescence, H4-C neuroglioblastoma cells, dose response (AID 2458); assay type: functional, cell-based;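 also: H4 neuroglioblastoma cells stably carrying a luciferase reporter gene fusion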
[22] = luciferase reporter signal suppression in cells – H4 neuroglioma cells, luminescence, dose response (AID 1990); assay type: functional, cell-based
[23] = viability loss in Vero cells – cytotoxicity control for Vif-APOBEC3G degradation inhibitor project, dose response (AID 1117358); assay type: functional; conditions: Vero
[24] = molecular target: T1, NADPH oxidase 1; assay type: functional, cell-based
[25] = Dd2 parasite growth inhibition in erythrocytes – SYBR Green, dry powder samples, set 9, dose response (AID 1159568); assay type: functional, cell-based
[26] = growth inhibition of PfATP4-mutant resistant parasites – NITD609-resistant line, SYBR Green, dry powder, dose response (AID 1159571); assay type: functional, cell-based;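 also: parasites synchronized at ring stage by sorbitol before testing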
[27] = Dd2 malaria parasite growth inhibition potency – SYBR Green, dry powder samples, dose response (AID 1159566); assay type: functional, cell-based;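 also: potency for growth inhibition with lower SYBR green DNA signal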
[28] = Plasmodium falciparum Dd2 Sybr green parasite growth Measured in Cell-Based and Microorganism Combination System Using Plate Reader - 2153-01_Inhibitor_Dose_DryPowder_Activity_Set3.; assay type: functional
[29] = toxicity to human HepG2 hepatoma cells – cell-based, plate reader, dry powder samples, cytotoxicity control, dose response (AID 1159569); assay type: functional;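 also: inhibitor potency with signal falling toward the positive control level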
[30] = growth inhibition of yeast DHODH-expressing 3D7 parasites – SYBR Green, dry powder samples, dose response (AID 1159570); assay type: functional, cell-based;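 also: parasite growth measured after 72 hours of compound exposure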
[31] = P. falciparum Dd2 growth inhibitors, dose response, SYBR Green, cherry-picked samples (AID 1159567); assay type: functional, cell-based

T3 sequence (Q07820 whole entry): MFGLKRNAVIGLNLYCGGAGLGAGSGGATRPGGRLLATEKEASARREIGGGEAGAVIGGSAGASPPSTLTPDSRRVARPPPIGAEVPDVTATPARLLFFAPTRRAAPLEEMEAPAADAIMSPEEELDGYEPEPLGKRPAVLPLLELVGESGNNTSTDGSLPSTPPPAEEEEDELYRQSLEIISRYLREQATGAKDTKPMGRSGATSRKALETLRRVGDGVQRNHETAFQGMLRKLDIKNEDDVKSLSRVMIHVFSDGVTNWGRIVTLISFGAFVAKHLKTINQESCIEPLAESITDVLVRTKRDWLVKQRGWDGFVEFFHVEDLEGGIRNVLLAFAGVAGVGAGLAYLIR
T1 sequence (Q9Y5S8 whole entry): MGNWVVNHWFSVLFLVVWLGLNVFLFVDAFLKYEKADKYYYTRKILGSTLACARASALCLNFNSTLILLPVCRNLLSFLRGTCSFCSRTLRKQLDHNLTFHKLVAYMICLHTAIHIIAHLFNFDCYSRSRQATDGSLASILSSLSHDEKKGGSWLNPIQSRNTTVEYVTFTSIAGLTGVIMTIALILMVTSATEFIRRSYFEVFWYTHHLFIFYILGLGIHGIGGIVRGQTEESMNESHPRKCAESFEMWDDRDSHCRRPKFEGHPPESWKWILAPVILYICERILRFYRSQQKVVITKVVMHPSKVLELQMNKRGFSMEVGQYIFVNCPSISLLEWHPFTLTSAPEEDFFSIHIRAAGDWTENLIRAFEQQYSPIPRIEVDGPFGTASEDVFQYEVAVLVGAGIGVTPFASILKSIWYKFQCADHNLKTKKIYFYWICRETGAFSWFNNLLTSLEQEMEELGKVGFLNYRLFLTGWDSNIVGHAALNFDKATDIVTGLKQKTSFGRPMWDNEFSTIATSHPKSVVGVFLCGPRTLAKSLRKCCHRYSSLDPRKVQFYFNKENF
Sequence of Bcl-2-like protein 1 (Q07817 whole entry): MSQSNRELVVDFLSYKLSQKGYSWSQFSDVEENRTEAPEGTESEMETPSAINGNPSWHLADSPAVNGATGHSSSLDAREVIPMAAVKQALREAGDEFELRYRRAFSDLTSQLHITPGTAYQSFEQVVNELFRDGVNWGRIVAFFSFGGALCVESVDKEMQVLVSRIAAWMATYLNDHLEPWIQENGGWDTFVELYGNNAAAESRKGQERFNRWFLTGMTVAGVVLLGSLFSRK
Sequence of Melanin-concentrating hormone receptor 1 (Q99705 whole entry): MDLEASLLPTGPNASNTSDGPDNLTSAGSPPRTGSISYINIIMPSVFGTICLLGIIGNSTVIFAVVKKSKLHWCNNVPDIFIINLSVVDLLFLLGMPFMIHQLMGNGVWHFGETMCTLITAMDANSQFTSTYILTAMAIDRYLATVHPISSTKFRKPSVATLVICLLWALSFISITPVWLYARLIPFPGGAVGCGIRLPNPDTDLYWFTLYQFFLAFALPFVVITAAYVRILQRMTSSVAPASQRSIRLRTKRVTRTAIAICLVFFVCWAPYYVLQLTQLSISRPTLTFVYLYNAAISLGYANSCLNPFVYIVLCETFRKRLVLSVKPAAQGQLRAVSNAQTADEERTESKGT
Sequence of Aryl hydrocarbon receptor (P35869 whole entry): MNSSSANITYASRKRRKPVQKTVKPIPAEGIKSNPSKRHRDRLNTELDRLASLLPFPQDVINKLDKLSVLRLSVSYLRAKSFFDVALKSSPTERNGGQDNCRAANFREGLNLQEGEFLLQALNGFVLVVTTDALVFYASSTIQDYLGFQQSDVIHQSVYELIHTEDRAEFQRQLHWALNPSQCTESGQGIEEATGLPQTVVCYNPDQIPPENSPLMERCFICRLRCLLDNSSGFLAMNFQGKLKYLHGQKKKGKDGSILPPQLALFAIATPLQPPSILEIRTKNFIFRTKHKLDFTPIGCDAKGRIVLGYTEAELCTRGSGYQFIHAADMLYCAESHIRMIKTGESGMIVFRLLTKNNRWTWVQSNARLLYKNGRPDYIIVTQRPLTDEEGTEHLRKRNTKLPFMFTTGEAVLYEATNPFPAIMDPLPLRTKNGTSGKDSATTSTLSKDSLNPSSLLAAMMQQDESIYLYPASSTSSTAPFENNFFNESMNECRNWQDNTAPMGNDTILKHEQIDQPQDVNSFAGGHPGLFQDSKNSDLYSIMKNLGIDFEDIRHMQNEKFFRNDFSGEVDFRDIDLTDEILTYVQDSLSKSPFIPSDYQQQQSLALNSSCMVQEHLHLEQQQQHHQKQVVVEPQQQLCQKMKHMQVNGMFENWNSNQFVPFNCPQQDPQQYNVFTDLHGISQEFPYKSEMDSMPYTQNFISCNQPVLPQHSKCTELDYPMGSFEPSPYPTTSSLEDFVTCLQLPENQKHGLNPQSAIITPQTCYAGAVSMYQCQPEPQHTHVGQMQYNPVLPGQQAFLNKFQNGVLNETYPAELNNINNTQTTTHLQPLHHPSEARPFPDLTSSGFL
Sequence of Neuropeptides B/W receptor type 1 (P48145 whole entry): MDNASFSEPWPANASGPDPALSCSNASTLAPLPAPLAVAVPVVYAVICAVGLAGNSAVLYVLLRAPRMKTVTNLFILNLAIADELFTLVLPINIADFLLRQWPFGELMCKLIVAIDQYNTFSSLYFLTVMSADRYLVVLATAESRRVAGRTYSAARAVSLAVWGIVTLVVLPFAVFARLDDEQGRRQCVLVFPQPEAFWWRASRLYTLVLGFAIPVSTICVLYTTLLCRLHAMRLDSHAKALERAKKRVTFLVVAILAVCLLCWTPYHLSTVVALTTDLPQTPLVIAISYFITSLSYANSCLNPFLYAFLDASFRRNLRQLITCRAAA
Sequence of Mitogen-activated protein kinase 10 (P53779 whole entry): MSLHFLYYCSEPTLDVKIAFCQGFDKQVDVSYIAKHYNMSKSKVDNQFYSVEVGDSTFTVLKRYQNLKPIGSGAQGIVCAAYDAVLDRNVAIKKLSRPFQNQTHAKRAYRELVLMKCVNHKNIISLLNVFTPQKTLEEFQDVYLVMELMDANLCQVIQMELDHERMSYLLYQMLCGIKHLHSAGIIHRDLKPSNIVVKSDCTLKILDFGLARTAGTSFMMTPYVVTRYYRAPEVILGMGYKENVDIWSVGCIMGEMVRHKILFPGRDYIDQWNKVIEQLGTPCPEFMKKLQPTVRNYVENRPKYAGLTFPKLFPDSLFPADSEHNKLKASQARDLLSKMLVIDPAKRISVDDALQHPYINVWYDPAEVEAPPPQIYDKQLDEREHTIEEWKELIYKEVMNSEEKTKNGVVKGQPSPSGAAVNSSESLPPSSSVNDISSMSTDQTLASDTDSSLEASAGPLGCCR

CN1c2ccccc2Sc2cc(NC(=O)c3ccc(N=[N+]=[N-])cc3)ccc21
IC50 [1]: 17.7 µM (active)

Cc1c(-c2nc(-c3ccc(C(C)(C)C)cc3)no2)n(C)oc1=O
AC50 [2]: > 52 µM (inactive)
IC50 [3]: > 0.003 µM (active)

O=c1c2c3c(sc2[nH]c(=S)n1Cc1ccco1)CCC3
IC50 [4]: > 109 µM (not active)
IC50 [5]: 77.8 µM (not active)
IC50 [6]: 2.1 µM (active)

O=C(N/N=C/C(Br)=C/c1ccccc1)c1cc(-c2ccco2)[nH]n1
EC50 [7]: > 59.6 µM (inactive)
CC50 [8]: 33.1 µM (active)
EC50 [9]: > 59.6 µM (inactive)

Cc1c(-c2nc(N)nc(Nc3ccccc3)n2)oc2ccccc12
IC50 [10]: > 93.1 µM (not active)
IC50 [11]: 7.66 µM (active)

O=C(NC1CCCC1)C(c1ccccc1)N(Cc1ccco1)C(=O)Cc1cccs1 (stereo unspecified)
IC50 [12]: > 43.8 µM (not active)
IC50 [13]: 4.76 µM (active)

Nc1cccc(Nc2ncnc3ccccc23)c1
EC50 [14]: 3.58 µM (active)

CN(C)c1ccc(C(=O)c2ccc(N(C)C)c3ccccc23)cc1
EC50 [15]: 0.112 µM (active)
IC50 [16]: > 25 µM (active)
EC50 [17]: < 0.1 µM (active)
EC50 [18]: < 0.1 µM (active)
EC50 [19]: 0.118 µM (active)
IC50 [20]: 0.146 µM (active)
EC50 [21]: 0.103 µM (active)
EC50 [22]: < 0.1 µM (active)

O=C(c1ccco1)c1cn(Cc2ccccc2)c2ccccc12
CC50 [23]: > 40 µM (active)

O=C(Nc1ccc(OCc2ccccc2)cc1)Nc1ccc([N+](=O)[O-])cc1
IC50 [24]: > 17 µM (not active)

CCCC(=O)Nc1ccc2c(c1)OC[C@@H](C)N(Cc1cc(F)ccc1F)C[C@@H](C)[C@H](OC)CN(C)C2=O
AC50 [25]: 0.978 µM (active)
AC50 [26]: 2.81 µM (active)
AC50 [27]: 0.322 µM (active)
AC50 [28]: 2.07 µM (active)
AC50 [29]: > 100 µM (inactive)
AC50 [30]: 7.15 µM (active)
AC50 [31]: 0.817 µM (active)
